{"source": "patent US5463127A", "about": "“Process for preparation of halohydroxypropyl-trialkylammonium halides” (The Dow Chemical Company, priority 1995, dated 1995)", "origin": "cited, not measured here", "settings": "aqueous solution", "note": "Where two headings read alike, the source gives them in different places.", "data": [{"compound": "CN(C)C", "note": "[Trimethylamine, trimethylamine]", "values": [{"measurement": "pKa of Trimethylamine", "setting": "0 °C.", "value": 10.355}, {"measurement": "pKa of Trimethylamine", "setting": "10 °C.", "value": 10.128}, {"measurement": "pKa of Trimethylamine", "setting": "20 °C.", "value": 9.907}, {"measurement": "pKa of Trimethylamine", "setting": "30 °C.", "value": 9.692}, {"measurement": "pKa of Trimethylamine", "setting": "40 °C.", "value": 9.477}, {"measurement": "pKa of Trimethylamine", "setting": "50 °C.", "value": 9.270}]}]}
